Data from patent US11229205B2, “Herbicidally active pyridyl-/pyrimidyl-pyrazine derivatives” (Syngenta Participations AG, priority 2017, dated 2022).

Assays:
Type in all cases: in vivo
Lolium perenne (LOLPE) [1] = experiment: Post-emergence herbicidal activity (B2); conditions: Test B2a; post-emergence application; rate 1000 g/ha; evaluated after 13 days; score 0-5
Experimental: (§1) Seeds of a variety of test species were sown in standard soil in pots: Triticum aestivium (TRZAW), Avena fatua (AVEFA), Alopecurus myosuroides (ALOMY), Echinochloa crus-galli (ECHCG), Lolium perenne (LOLPE), Zea Mays (ZEAMX), Abutilon theophrasti (ABUTH), Amaranthus retroflexus (AMARE) and Setaria faberi (SETFA). […] The test plants were then grown in a glasshouse under controlled conditions (at 24/16° C., day/night; 14 hours light; 65% humidity) and watered twice daily. After 13 days, the test was evaluated (5=total damage to plant; 0=no damage to plant).

Setaria faberi (SETFA) [2] = experiment: Post-emergence herbicidal activity (B2); conditions: Test B2a; post-emergence application; rate 1000 g/ha; evaluated after 13 days; score 0-5
Experimental: as §1

[3] = system: Amaranthus retroflexus (AMARE); experiment: Post-emergence herbicidal activity (B2); conditions: Test B2a; post-emergence application; rate 1000 g/ha; evaluated after 13 days; score 0-5
Experimental: as §1

[4] = system: Echinochloa crus-galli (ECHCG); experiment: Post-emergence herbicidal activity (B2); conditions: Test B2a; post-emergence application; rate 1000 g/ha; evaluated after 13 days; score 0-5
Experimental: as §1

Zea Mays (ZEAMX) [5] = experiment: Post-emergence herbicidal activity (B2); conditions: Test B2a; post-emergence application; rate 1000 g/ha; evaluated after 13 days; score 0-5
Experimental: as §1

[6] = system: Abutilon theophrasti (ABUTH); experiment: Post-emergence herbicidal activity (B2); conditions: Test B2a; post-emergence application; rate 1000 g/ha; evaluated after 13 days; score 0-5
Experimental: as §1

Lolium perenne (LOLPE) [7] = experiment: Pre-emergence herbicidal activity (B1); conditions: Test 1a; pre-emergence application; rate 1000 g/ha; evaluated after 13 days; score 0-5
Experimental: as §1

Setaria faberi (SETFA) [8] = experiment: Pre-emergence herbicidal activity (B1); conditions: Test 1a; pre-emergence application; rate 1000 g/ha; evaluated after 13 days; score 0-5
Experimental: as §1

[9] = system: Amaranthus retroflexus (AMARE); experiment: Pre-emergence herbicidal activity (B1); conditions: Test 1a; pre-emergence application; rate 1000 g/ha; evaluated after 13 days; score 0-5
Experimental: as §1

[10] = system: Echinochloa crus-galli (ECHCG); experiment: Pre-emergence herbicidal activity (B1); conditions: Test 1a; pre-emergence application; rate 1000 g/ha; evaluated after 13 days; score 0-5
Experimental: as §1

Zea Mays (ZEAMX) [11] = experiment: Pre-emergence herbicidal activity (B1); conditions: Test 1a; pre-emergence application; rate 1000 g/ha; evaluated after 13 days; score 0-5
Experimental: as §1

[12] = system: Abutilon theophrasti (ABUTH); experiment: Pre-emergence herbicidal activity (B1); conditions: Test 1a; pre-emergence application; rate 1000 g/ha; evaluated after 13 days; score 0-5
Experimental: as §1

Cc1nc(-c2cncnc2)cnc1N [Compound G1]
damage to plant, LOLPE (Lolium perenne (LOLPE) [1]): 1
damage to plant, SETFA (Setaria faberi (SETFA) [2]): 2
damage to plant, AMARE [3]: 2
damage to plant, ECHCG [4]: 1
damage to plant, ZEAMX (Zea Mays (ZEAMX) [5]): 2
damage to plant, ABUTH [6]: 1
damage to plant, LOLPE (Lolium perenne (LOLPE) [7]): 0
damage to plant, SETFA (Setaria faberi (SETFA) [8]): 2
damage to plant, AMARE [9]: 0
damage to plant, ECHCG [10]: 1
damage to plant, ZEAMX (Zea Mays (ZEAMX) [11]): 1
damage to plant, ABUTH [12]: 0
